Data from patent US20140128411A1, “FUNGICIDAL COMPOSITION AND METHOD FOR CONTROLLING PLANT DISEASES” (Ishihara Sangyo Kaisha, Ltd., priority 2011, published 2014).
Several values for one entry are separate records, joined by “and”; a condition that tells them apart may be missing. Equal values may be shown once.

Legend:
Erysiphe graminis = assay: Test on preventive effect against wheat powdery mildew; type: in vivo, Erysiphe graminis on wheat (cultivar: Norin-61); parameters: key: control value = (1 − a/b)×100; a, b = sporulation area treated/untreated; conditions: single compound alone
Description: Wheat (cultivar: Norin-61) was cultivated in a plastic pot having a diameter of 7.5 cm, and when it reached 1.5-leaf stage, a chemical solution having each test compound adjusted to a prescribed concentration, was applied by a spray gun in an amount of 5 ml/seedling. After the chemical solution dried, conidia of Erysiphe graminis were dusted and inoculated and maintained in a constant temperature chamber at 20° C. From 6 to 8 days after the inoculation, the area of sporulation was investigated, and the control value was determined in accordance with the following formula, and the results are shown in Tables 1 to 7. The area of sporulation in the non-treated plot was determined in the same manner as for the treated plot except that water was applied by a spray gun instead of the chemical solution.
(§1) Control value=(1−a/b)×100
a: area of sporulation in the treated plot
b: area of sporulation in the non-treated plot
Based on the obtained control value, an expected value (control value) was calculated by the Colby's formula. The expected values by the Colby's formula are also shown in brackets ( ) in Tables 1 to 7.
When the experimental value is higher than the expected value, the fungicidal composition of the present invention has a synergistic effect against wheat powdery mildew.

Botrytis cinerea = assay: Test on preventive effect against kidney bean gray mold; type: in vivo, Botrytis cinerea on kidney bean (cultivar: Taishokintoki); conditions: single compound alone
Description: Kidney bean (cultivar: Taishokintoki) was cultivated in a plastic pot having a diameter of 12 cm, and when it reached 3 to 4-leaf stage, a chemical solution having each test compound adjusted to a prescribed concentration, was applied by a spray gun in an amount of 10 ml/seedling. After the chemical solution dried, a suspension of conidia of Botrytis cinerea was blotted on a paper disk having a diameter of 8 mm for implantation inoculation and maintained in a constant temperature chamber at 20° C. Upon expiration of 3 days from the inoculation, the lesion area was investigated, and the control value was determined in accordance with the following formula, and the results are shown in Table 8. The lesion area in the non-treated plot was determined in the same manner as for the treated plot except that water was applied by a spray gun instead of the chemical solution.
as §1
a: lesion area in the treated plot
b: lesion area in the non-treated plot
Based on the obtained control value, an expected value (control value) was calculated by the Colby's formula. The expected values by the Colby's formula are also shown in brackets ( ) in Table 8.
When the experimental value is higher than the expected value, the fungicidal composition of the present invention has a synergistic effect against kidney bean gray mold.

CCCCCCCCc1c(CC)nc2ncnn2c1N [ametoctradin]
Control value (Erysiphe graminis; 200 ppm): 0
Control value (Erysiphe graminis; 400 ppm): 15

Cn1cc(C(=O)Nc2ccc(F)cc2-c2ccc(Cl)c(Cl)c2)c(C(F)F)n1 [bixafen]
Control value (Erysiphe graminis; 250 ppm): 0
Control value (Erysiphe graminis; 500 ppm): 50

COc1cc(C)c(C(=O)c2c(OC)ncc(Cl)c2C)c(OC)c1OC [component (a), 3-(2,3,4-trimethoxy-6-methylbenzoyl)-5-chloro-2-methoxy-4-methylpyridine]
Control value (Botrytis cinerea; 200 ppm): 0
Control value (Botrytis cinerea; 400 ppm, spray, lesion area 3 days after inoculation): 0
Control value (Erysiphe graminis; 0.25 ppm): 30
Control value (Erysiphe graminis; 0.5 ppm, spray, area of sporulation 6 to 8 days after inoculation): 50 and 40

C=CCSC(=O)n1c(N)c(-c2ccccc2C)c(=O)n1C(C)C [fenpyrazamine]
Control value (Erysiphe graminis; 63 ppm): 0
Control value (Erysiphe graminis; 250 ppm): 0

O=C(NCCc1ncc(C(F)(F)F)cc1Cl)c1ccccc1C(F)(F)F [fluopyram]
Control value (Erysiphe graminis; 16 ppm): 40
Control value (Erysiphe graminis; 31 ppm): 70

Cn1cc(C(=O)Nc2ccccc2-c2cc(F)c(F)c(F)c2)c(C(F)F)n1 [fluxapyroxad]
Control value (Erysiphe graminis; 6.3 ppm): 30
Control value (Erysiphe graminis; 50 ppm): 50

CC(C)C1C2CCC1c1c(NC(=O)c3cn(C)nc3C(F)F)cccc12 (centres unmarked) [isopyrazam]
Control value (Erysiphe graminis; 16 ppm): 50
Control value (Erysiphe graminis; 31 ppm): 90

Cc1nn(C)c(F)c1C(=O)Nc1ccccc1C(C)CC(C)C (centres unmarked) [penflufen]
Control value (Botrytis cinerea; 50 ppm): 40
Control value (Botrytis cinerea; 100 ppm): 50

Cn1cc(C(=O)Nc2ccccc2C2CC2C2CC2)c(C(F)F)n1 (centres unmarked) [sedaxane]
Control value (Erysiphe graminis; 6.3 ppm): 0
Control value (Erysiphe graminis; 12.5 ppm): 30
